Each structure is given as a SMILES string.

Experimental findings from patent US7416741B2, “Copper lowering treatment of inflammatory and fibrotic diseases” (The Regents of the University of Michigan, priority 2002, dated 2008) are described below.

The data set deals with Wilson's disease patients. Put plainly: Open label study of TM for initial treatment of neurologically presenting Wilson's disease patients. It is filed as in vivo, human. From the text: The results in the first patient studied can be used to illustrate several points. For the first seven days, the patient received TM only with meals (tid with meals). This produced the immediate negative copper balance one would expect from the first mechanism of action (blockade of copper absorption when given with meals). After the first seven days, TM was given between meals as well (tid with meals, and tid between meals). This led to the immediate rise in plasma copper expected from absorption of TM into the blood, and formation of a complex of copper, TM, and albumin. The copper complexed with TM and albumin is unavailable for cellular uptake, and this copper is therefore non-toxic. There is a 1:1 stochiometric relationship between molybdenum and copper in this complex. Knowing the molybdenum level in the blood, and the ceruloplasmin level (ceruloplasmin also contains copper that is non-toxic), one can calculate how much of the plasma copper is not bound to one or the other. This so-called “free copper” (non-ceruloplasmin plasma copper) is the potentially toxic copper. When reduced to zero, the plasma copper-molybdenum “gap” is closed. This took 16 days in the first patient (9 days after adding the between meal doses). Since in the brain (and in other organs), free copper is in equilibrium with the blood, decreasing the blood free copper to a low level begins the process of lowering the brain level of free (toxic) copper.
The inventors have treated initially 56 Wilson's disease patients with TM, all of whom presented with neurological or psychiatric disease, in an open label study. These patients were all diagnosed by standard criteria. […] Some of them were treated briefly with other agents prior to this trial. Two patients had psychiatric but not neurological symptoms.
With three exceptions in the earliest part of the study, all patients received a dose of 20 mg tid with meals, or qid with three meals and a snack. Thus, the only difference between a patient receiving 120 mg and 140 mg total dose is that the former was receiving 20 mg tid, or 60 mg, with meals, and the latter was receiving 20 mg qid, or 80 mg with meals plus a snack. The rest of the total daily dose was divided up into three equal doses and given between meals.
Measuring trichloracetic acid (TCA) soluble copper of the plasma is somewhat useful in assessing the impact of TM therapy on copper metabolism in Wilson's disease. Generally, a high proportion of plasma copper in these patients is TCA soluble (it averaged 56% in patients which is 27 p.g/dl). All of the non-ceruloplasmin plasma copper is TCA soluble, and a somewhat variable portion of the ceruloplasmin copper is also TCA soluble. Because the ceruloplasmin levels are usually rather low in Wilson's disease, most of the plasma copper is TCA soluble. The copper in the TM/albumin/copper complex in the blood is TCA insoluble. Thus, as therapy proceeds, the fraction of the plasma copper that is TCA soluble becomes smaller. […] The TCA soluble fraction cannot be used as an absolute endpoint, for example attempting to reduce it to zero, because a small and somewhat variable soluble fraction is usually present due to plasma ceruloplasmin. However, the significant mean reduction from 27 to 15 p.g/dl illustrates the beneficial effect that TM therapy has on the status of the potentially toxic plasma copper in these patients. Further evidence of the desirable impact of TM therapy on copper metabolism is shown by reduction of mean urine copper values during the latter part of TM therapy, compared to baseline values.
TM has a quick and favorable impact on copper metabolism, reducing the levels of potentially toxic copper of the blood and as contemplated the rest of the body as well. The primary clinical objective in treatment of Wilson's disease is to gain control over copper toxicity while not allowing worsening of the disease or symptoms. […]

[1] abbreviates: among the seven anemia patients.

Regarding `[SH-].[SH-].[S]=[Mo]=[S]` [TM, tetrathiomolybdate], the “patients with reversible anemia/bone marrow depression” value (56 patients) is “seven”. Where the note is “all treated with 150 mg TM/day or higher”, the “patients with elevation of transaminase values (serum AST and ALT)” value is reported as “four of the patients”. In addition, the “patients with reduction in platelet count” value under setting [1] is given as “Three of the patients”. Also, the “patients with reduction in white blood cell count” value under setting [1] is listed as “four of the patients”. The same compound displayed a fall in hemoglobin (average in the seven anemia patients) of 3.4%. Also, the overtreatment incidence is, setting by setting: (dose of 180 mg/day or over) 6 of 37; (dose of 150 or lower) 1 of 13. The “patients with change of more than 5 units in quantitative neurological exam (significant worsening)” value (during weeks of TM administration, two patients) was 4%. In addition, under “first patient, TM tid with meals, from day 7 also tid between meals”, the “time to close the plasma copper-molybdenum gap (free copper reduced to zero)” value was 16 days. Besides, the “quantitative speech exam scores” value (initial 8 weeks of TM therapy) is given as “No patient shows significant (more than 2.0 units) reduction in scores”.
